Experimental findings from patent US20060252807A1, “Novel ortho-terphenyl inhibitors of p38 kinase and methods of treating inflammatory disorders” (Kalypsys, Inc., priority 2005, published 2006) are described below.

The term IC50 denotes the concentration needed to halve the response being measured. Lower therefore signals higher potency.

In the assay the target is T1, active p38 alpha enzyme (Upstate Biotechnology) (Homo sapiens, UniProt Q16539).
T1 construct: purchased Upstate Biotechnology
T1 sequence (Q16539 whole entry): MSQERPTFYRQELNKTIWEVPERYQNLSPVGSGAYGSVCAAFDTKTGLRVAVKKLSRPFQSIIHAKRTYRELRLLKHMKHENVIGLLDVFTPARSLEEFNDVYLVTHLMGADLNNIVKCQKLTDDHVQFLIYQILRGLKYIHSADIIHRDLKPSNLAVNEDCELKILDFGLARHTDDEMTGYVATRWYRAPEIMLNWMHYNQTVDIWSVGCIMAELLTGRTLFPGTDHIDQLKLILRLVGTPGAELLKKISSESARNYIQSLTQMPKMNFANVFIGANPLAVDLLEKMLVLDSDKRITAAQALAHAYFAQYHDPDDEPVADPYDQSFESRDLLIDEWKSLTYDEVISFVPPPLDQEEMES
Put plainly: p38α biochemical assay (ATP turnover, luminescent detection, Cambrex PKlight). The conditions noted are these: p38α biochemical assay, Table 1 Biological Activity. In a few lines: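 Compounds in DMSO are added to active p38 alpha with MapkapK2 whole protein and ATP at 1.4 uM final. Reactions then run for 2 hours at 30C. A luminescent reagent is added last to quantify total ATP consumed.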
In turn, `Cc1ccccc1CC(=O)N1CCN(Cc2nc(-c3ccc(F)cc3)c(-c3nc(C(=O)NC(C)C)cs3)o2)CC1` [Example 372] displayed an IC50 of over 1000 nM. In the case of `Cc1cccc(C(=O)N2CCN(Cc3nc(-c4ccc(F)cc4)c(-c4nc(C(=O)NC(C)C)cs4)o3)CC2)c1C` [Example 373] it was over 1000 nM; in that of `Cc1ccc(C)c(C(=O)N2CCN(Cc3nc(-c4ccc(F)cc4)c(-c4nc(C(=O)NC(C)C)cs4)o3)CC2)c1` [Example 374], over 1000 nM; in that of `Cc1cc(C)cc(C(=O)N2CCN(Cc3nc(-c4ccc(F)cc4)c(-c4nc(C(=O)NC(C)C)cs4)o3)CC2)c1` [Example 375], over 1000 nM. In the case of `Cc1ccc(C(=O)N2CCN(Cc3nc(-c4ccc(F)cc4)c(-c4nc(C(=O)NC(C)C)cs4)o3)CC2)cc1C` [Example 376] it was over 1000 nM; in that of `CCc1ccc(C(=O)N2CCN(Cc3nc(-c4ccc(F)cc4)c(-c4nc(C(=O)NC(C)C)cs4)o3)CC2)cc1` [Example 377], over 1000 nM; in that of `COc1ccc(C(=O)N2CCN(Cc3nc(-c4ccc(F)cc4)c(-c4nc(C(=O)NC(C)C)cs4)o3)CC2)cc1` [Example 378], over 1000 nM.

In turn, `Cc1cccc(C(=O)N2CCN(Cc3nc(-c4ccc(F)cc4)c(-c4nc(C(=O)NC(C)C)cs4)o3)CC2)c1O` [Example 379] displayed a half-maximal inhibitory concentration (IC50) of at most 1000 nM. In the case of `CC(C)NC(=O)c1csc(-c2oc(CN3CCN(C(=O)Cc4ccccc4O)CC3)nc2-c2ccc(F)cc2)n1` [Example 380] it was at most 1000 nM. In the case of `CC(C)NC(=O)c1csc(-c2oc(CN3CCN(C(=O)Cc4cccc(O)c4)CC3)nc2-c2ccc(F)cc2)n1` [Example 381] it was at most 1000 nM; in that of `Cc1ccc(O)c(C(=O)N2CCN(Cc3nc(-c4ccc(F)cc4)c(-c4nc(C(=O)NC(C)C)cs4)o3)CC2)c1` [Example 382], at most 1000 nM; in that of `CC(C)NC(=O)c1csc(-c2oc(CN3CCN(C(=O)c4cc(O)ccc4O)CC3)nc2-c2ccc(F)cc2)n1` [Example 383], at most 1000 nM.

Turning to `CC(C)NC(=O)c1csc(-c2oc(CN3CCN(C(=O)c4cccc(O)c4O)CC3)nc2-c2ccc(F)cc2)n1` [Example 384], the IC50 was at most 1000 nM. The compound `CC(C)NC(=O)c1csc(-c2oc(CN3CCN(C(=O)c4ccc(O)cc4O)CC3)nc2-c2ccc(F)cc2)n1` [Example 385] yielded a concentration for half-maximal inhibition (IC50) of at most 1000 nM. `Cc1ccc(C(=O)N2CCN(Cc3nc(-c4ccc(F)cc4)c(-c4nc(C(=O)NC(C)C)cs4)o3)CC2)cc1F` [Example 386] had an IC50 of over 1000 nM. Regarding `Cc1ccc(F)cc1C(=O)N1CCN(Cc2nc(-c3ccc(F)cc3)c(-c3nc(C(=O)NC(C)C)cs3)o2)CC1` [Example 387], the 50% inhibitory concentration (IC50) was over 1000 nM.

With `CC(C)NC(=O)c1csc(-c2oc(CN3CCN(C(=O)c4ccccc4Cl)CC3)nc2-c2ccc(F)cc2)n1` [Example 388], the IC50 was over 1000 nM. With `CC(C)NC(=O)c1csc(-c2oc(CN3CCN(C(=O)c4ccc(Cl)nc4)CC3)nc2-c2ccc(F)cc2)n1` [Example 389] the figure was over 1000 nM. In the case of `CC(C)NC(=O)c1csc(-c2oc(CN3CCN(C(=O)c4cccnc4Cl)CC3)nc2-c2ccc(F)cc2)n1` [Example 390] it was over 1000 nM; in that of `CC(C)NC(=O)c1csc(-c2oc(CN3CCN(C(=O)c4ccnc(Cl)c4)CC3)nc2-c2ccc(F)cc2)n1` [Example 391], over 1000 nM. `CC(C)NC(=O)c1csc(-c2oc(CN3CCN(C(=O)c4cc(Cl)ccn4)CC3)nc2-c2ccc(F)cc2)n1` [Example 392] gave an IC50 of over 1000 nM. With `CC(C)NC(=O)c1csc(-c2oc(CN3CCN(C(=O)c4ccncc4Cl)CC3)nc2-c2ccc(F)cc2)n1` [Example 393] the figure was over 1000 nM; with `CC(C)NC(=O)c1csc(-c2oc(CN3CCN(C(=O)c4c(F)cccc4F)CC3)nc2-c2ccc(F)cc2)n1` [Example 394], over 1000 nM. As for `CC(C)NC(=O)c1csc(-c2oc(CN3CCN(C(=O)c4cccc(F)c4F)CC3)nc2-c2ccc(F)cc2)n1` [Example 395], the half-inhibitory concentration (IC50) is over 1000 nM. With `CC(C)NC(=O)c1csc(-c2oc(CN3CCN(C(=O)c4ccc(F)cc4F)CC3)nc2-c2ccc(F)cc2)n1` [Example 396] the figure was over 1000 nM; with `CC(C)NC(=O)c1csc(-c2oc(CN3CCN(C(=O)c4cc(F)cc(F)c4)CC3)nc2-c2ccc(F)cc2)n1` [Example 397], over 1000 nM. With `CC(C)NC(=O)c1csc(-c2oc(CN3CCN(C(=O)c4ccc(F)c(F)c4)CC3)nc2-c2ccc(F)cc2)n1` [Example 398], the IC50 is over 1000 nM. For `CC(CC(=O)N1CCN(Cc2nc(-c3ccc(F)cc3)c(-c3nc(C(=O)NC(C)C)cs3)o2)CC1)CC(C)(C)C` (centres unmarked) [Example 399], the concentration for half-maximal inhibition (IC50) was at most 1000 nM.

On to `CC(C)NC(=O)c1csc(-c2oc(CN3CCN(C(=O)c4cc5ccccc5o4)CC3)nc2-c2ccc(F)cc2)n1` [Example 400], for which the half-inhibitory concentration (IC50) was over 1000 nM. With `CC(C)NC(=O)c1csc(-c2oc(CN3CCN(C(=O)C4CCc5ccccc54)CC3)nc2-c2ccc(F)cc2)n1` (centres unmarked) [Example 401] the figure was at most 1000 nM; with `CC(C)NC(=O)c1csc(-c2oc(CN3CCN(C(=O)C(Cl)(Cl)Cl)CC3)nc2-c2ccc(F)cc2)n1` [Example 402], at most 1000 nM. With `CC(C)NC(=O)c1csc(-c2oc(CN3CCN(C(=O)/C=C/c4ccccc4O)CC3)nc2-c2ccc(F)cc2)n1` [Example 403] the figure was at most 1000 nM. In the case of `CC(=O)c1ccc(C(=O)N2CCN(Cc3nc(-c4ccc(F)cc4)c(-c4nc(C(=O)NC(C)C)cs4)o3)CC2)cc1` [Example 404] it was over 1000 nM; in that of `CC(C)NC(=O)c1csc(-c2oc(CN3CCN(C(=O)/C=C/c4cccc(O)c4)CC3)nc2-c2ccc(F)cc2)n1` [Example 405], over 1000 nM; in that of `CC(=O)c1cccc(C(=O)N2CCN(Cc3nc(-c4ccc(F)cc4)c(-c4nc(C(=O)NC(C)C)cs4)o3)CC2)c1` [Example 406], over 1000 nM. As for `CC(=O)c1ccccc1C(=O)N1CCN(Cc2nc(-c3ccc(F)cc3)c(-c3nc(C(=O)NC(C)C)cs3)o2)CC1` [Example 407], the 50% inhibitory concentration (IC50) was at most 1000 nM. For the compound `CC(C)NC(=O)c1csc(-c2oc(CN3CCN(C(=O)c4ccc(C(C)C)cc4)CC3)nc2-c2ccc(F)cc2)n1` [Example 408], the IC50 is over 1000 nM. With `Cc1ccccc1CCC(=O)N1CCN(Cc2nc(-c3ccc(F)cc3)c(-c3nc(C(=O)NC(C)C)cs3)o2)CC1` [Example 409] the figure was at most 1000 nM.

`Cc1cccc(CCC(=O)N2CCN(Cc3nc(-c4ccc(F)cc4)c(-c4nc(C(=O)NC(C)C)cs4)o3)CC2)c1` [Example 410] had an IC50 of at most 1000 nM. In the case of `CCC(C(=O)N1CCN(Cc2nc(-c3ccc(F)cc3)c(-c3nc(C(=O)NC(C)C)cs3)o2)CC1)c1ccccc1` (centres unmarked) [Example 411] it was over 1000 nM; in that of `Cc1cc(C)c(C(=O)N2CCN(Cc3nc(-c4ccc(F)cc4)c(-c4nc(C(=O)NC(C)C)cs4)o3)CC2)c(C)c1` [Example 412], at most 1000 nM. In the case of `CCCc1ccc(C(=O)N2CCN(Cc3nc(-c4ccc(F)cc4)c(-c4nc(C(=O)NC(C)C)cs4)o3)CC2)cc1` [Example 413] it was over 1000 nM. With `CC(C)NC(=O)c1csc(-c2oc(CN3CCN(C(=O)c4ccc5c(c4)OCO5)CC3)nc2-c2ccc(F)cc2)n1` [Example 414] the figure was over 1000 nM; with `CC(C)NC(=O)c1csc(-c2oc(CN3CCN(C(=O)/C=C/c4ccccc4F)CC3)nc2-c2ccc(F)cc2)n1` [Example 415], over 1000 nM.

`CCOc1ccccc1C(=O)N1CCN(Cc2nc(-c3ccc(F)cc3)c(-c3nc(C(=O)NC(C)C)cs3)o2)CC1` [Example 416] came in with an IC50 of over 1000 nM. With `Cc1ccccc1OCC(=O)N1CCN(Cc2nc(-c3ccc(F)cc3)c(-c3nc(C(=O)NC(C)C)cs3)o2)CC1` [Example 417] the figure was over 1000 nM. In the case of `CC(C)NC(=O)c1csc(-c2oc(CN3CCN(C(=O)CCc4ccccc4O)CC3)nc2-c2ccc(F)cc2)n1` [Example 418] it was at most 1000 nM. With `COc1ccccc1CC(=O)N1CCN(Cc2nc(-c3ccc(F)cc3)c(-c3nc(C(=O)NC(C)C)cs3)o2)CC1` [Example 419], the half-maximal inhibitory concentration (IC50) was at most 1000 nM.

`CC(C)NC(=O)c1csc(-c2oc(CN3CCN(C(=O)C(C)c4ccc(O)cc4)CC3)nc2-c2ccc(F)cc2)n1` (centres unmarked) [Example 420] gave an IC50 of over 1000 nM. With `CC(C)NC(=O)c1csc(-c2oc(CN3CCN(C(=O)c4ccccc4[N+](=O)[O-])CC3)nc2-c2ccc(F)cc2)n1` [Example 421] the figure was over 1000 nM. With `CC(C)NC(=O)c1csc(-c2oc(CN3CCN(C(=O)c4cccc([N+](=O)[O-])c4)CC3)nc2-c2ccc(F)cc2)n1` [Example 422] the figure was over 1000 nM. With `COc1cccc(O)c1C(=O)N1CCN(Cc2nc(-c3ccc(F)cc3)c(-c3nc(C(=O)NC(C)C)cs3)o2)CC1` [Example 423] the figure was at most 1000 nM; with `COc1ccc(O)c(C(=O)N2CCN(Cc3nc(-c4ccc(F)cc4)c(-c4nc(C(=O)NC(C)C)cs4)o3)CC2)c1` [Example 424], at most 1000 nM; with `COc1ccc(C(=O)N2CCN(Cc3nc(-c4ccc(F)cc4)c(-c4nc(C(=O)NC(C)C)cs4)o3)CC2)c(O)c1` [Example 425], at most 1000 nM.

With `COc1ccc(C(=O)N2CCN(Cc3nc(-c4ccc(F)cc4)c(-c4nc(C(=O)NC(C)C)cs4)o3)CC2)cc1O` [Example 426], the IC50 was at most 1000 nM. In the case of `CC(C)NC(=O)c1csc(-c2oc(CN3CCN(C(=O)c4cc(O)c(O)c(O)c4)CC3)nc2-c2ccc(F)cc2)n1` [Example 427] it was at most 1000 nM; in that of `CC(C)NC(=O)c1csc(-c2oc(CN3CCN(C(=O)Cc4ccc(O)c(F)c4)CC3)nc2-c2ccc(F)cc2)n1` [Example 428], at most 1000 nM; in that of `Cc1cc(C(=O)N2CCN(Cc3nc(-c4ccc(F)cc4)c(-c4nc(C(=O)NC(C)C)cs4)o3)CC2)cc(Cl)n1` [Example 429], over 1000 nM.

`CC(C)NC(=O)c1csc(-c2oc(CN3CCN(C(=O)Cc4c(F)cccc4F)CC3)nc2-c2ccc(F)cc2)n1` [Example 430] had an IC50 of over 1000 nM.
